How the values were obtained:
RAR α = molecular target: T1, RAR α (Homo sapiens, UniProt P10276); assay: Ligand binding assay, retinoic acid receptor α; conditions: first value of α/β/γ cell
T1 sequence (P10276 1-462): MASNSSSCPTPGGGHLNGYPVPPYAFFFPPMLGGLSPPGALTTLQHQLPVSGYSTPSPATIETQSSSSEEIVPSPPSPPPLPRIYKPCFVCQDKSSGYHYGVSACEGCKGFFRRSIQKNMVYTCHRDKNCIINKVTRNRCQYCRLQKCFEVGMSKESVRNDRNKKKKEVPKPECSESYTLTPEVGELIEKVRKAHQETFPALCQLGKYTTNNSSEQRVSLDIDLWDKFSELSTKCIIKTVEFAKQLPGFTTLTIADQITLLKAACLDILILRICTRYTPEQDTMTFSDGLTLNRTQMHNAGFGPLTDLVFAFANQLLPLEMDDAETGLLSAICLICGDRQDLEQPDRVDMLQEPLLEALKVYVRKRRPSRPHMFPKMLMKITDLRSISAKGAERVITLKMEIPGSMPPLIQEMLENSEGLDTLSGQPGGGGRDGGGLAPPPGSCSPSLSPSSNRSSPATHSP
Source text: (§1) The retinoic acid receptor agonist selectivity of a compound of the invention may be determined by using ligand binding assays known to the skilled artisan (Apfel et al., Proc. Natl. Acad. Sci., 1992, 89, 7129; Teng et al., J. Med. Chem., 1997, 40, 2445; Bryce et al., U.S. Pat. No. 5,807,900 which are herein incorporated by reference). Treatment with RAR agonists, particularly RAR γ agonists may promote repair of alveolar matrix and septation, which are in important in treating emphysema. It should be noted that RAR agonists that are not γ selective may be effective in treating emphysema
as §1, with “emphysema” for “emphysema.”, “emphysema.” for “emphysema”

RAR γ = molecular target: T2, RAR γ (Homo sapiens, UniProt P13631); assay: Ligand binding assay, retinoic acid receptor γ; conditions: third value of α/β/γ cell
T2 sequence (P13631 1-454): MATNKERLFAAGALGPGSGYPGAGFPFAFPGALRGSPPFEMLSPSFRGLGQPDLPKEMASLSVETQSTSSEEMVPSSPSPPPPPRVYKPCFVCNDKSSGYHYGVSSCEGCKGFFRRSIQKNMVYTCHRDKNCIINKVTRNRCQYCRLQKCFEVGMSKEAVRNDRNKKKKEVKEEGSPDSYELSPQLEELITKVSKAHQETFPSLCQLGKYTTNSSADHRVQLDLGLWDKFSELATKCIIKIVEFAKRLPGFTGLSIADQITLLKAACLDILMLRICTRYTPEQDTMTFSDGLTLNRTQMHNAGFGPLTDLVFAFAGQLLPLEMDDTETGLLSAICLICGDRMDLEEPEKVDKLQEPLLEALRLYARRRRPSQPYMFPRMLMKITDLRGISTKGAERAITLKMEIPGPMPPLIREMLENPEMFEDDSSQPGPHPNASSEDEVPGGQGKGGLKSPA
Source text: as §1
as §1, with “emphysema” for “emphysema.”, “emphysema.” for “emphysema”

RAR β = molecular target: T3, RAR β (Homo sapiens, UniProt P10826); assay: Ligand binding assay, retinoic acid receptor β; conditions: second value of α/β/γ cell
T3 sequence (P10826 1-455): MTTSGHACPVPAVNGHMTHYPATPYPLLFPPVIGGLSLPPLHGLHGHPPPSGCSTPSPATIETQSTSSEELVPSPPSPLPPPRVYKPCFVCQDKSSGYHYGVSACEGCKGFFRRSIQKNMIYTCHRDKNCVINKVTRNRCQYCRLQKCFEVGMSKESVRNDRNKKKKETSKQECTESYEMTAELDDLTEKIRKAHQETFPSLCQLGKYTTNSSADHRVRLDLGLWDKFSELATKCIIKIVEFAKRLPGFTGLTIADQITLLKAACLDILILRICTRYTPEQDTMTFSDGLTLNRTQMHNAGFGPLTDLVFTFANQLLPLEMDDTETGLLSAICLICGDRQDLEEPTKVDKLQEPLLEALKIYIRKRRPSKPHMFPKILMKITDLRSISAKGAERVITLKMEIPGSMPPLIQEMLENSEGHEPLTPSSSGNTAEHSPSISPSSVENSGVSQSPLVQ
Source text: as §1
as §1, with “emphysema” for “emphysema.”, “emphysema.” for “emphysema”

[1] = tested on: rat model of elastase-induced emphysema; assay: Alveolar repair in rat model of elastase-induced emphysema; type: in vivo, male Sprague Dawley rats; conditions: once per day starting 21 days post elastase injury, relative to elastase+vehicle group
Source text: Compounds of the invention may be evaluated for their effects on alveolar repair in the rat model of elastase-induced emphysema (Massaro et al., Nature, 1997, Vol. 3, No. 6: 675; Massaro et al., U.S. Pat. No. 5,998,486). Preferably, animals are divided into treatment groups of approximately eight. Lung inflammation and alveolar damage may be induced in male Sprague Dawley rats by a single instillation of about 2 U/gram body mass of pancreatic elastase (porcine derived, Calbiochem).
Animals may be treated with a compound of the invention formulated Miglyol at convenient oral dosage ranges (preferably, between about 10.0 mg/kg and 0.0001 mg/kg) and will be dosed orally once per day starting 21 days post injury. Control groups are challenged with elastase and 21 days later are treated with vehicle (Miglyol) for 14 days. Animals were sacrificed 24 hours after the last dose by exsanguination under deep anesthesia. Blood was collected at time of exsanguination for analysis.
The lungs are inflated with 10% neutral buffered formalin by intratracheal instillation at a constant rate (1 ml/gram body mass/min). The lung is excised and immersed in fixative for 24 hours prior to processing. Standard methods were used to prepare 5 μm paraffin sections. Sections were stained with Hematoxylin and Eosin. Alveolar measurements were made in four regions of the lung/rat by Computerized Morphometric analysis. The mean value/treatment group may be determined by summing the average area/rat for all eight rats/treatment groups and repair of elastase damage expressed as percentage of repair relative to the elastase+vehicle treated group from the following calculation: […]

| SMILES | melting point [°C] | IC50 (RAR α) [nM] | IC50 (RAR γ) [nM] | IC50 (RAR β) [nM] | % Alveolar repair ([1]; dose 1 μg/kg p.o.) [%] | % Alveolar repair ([1]; dose 10 μg/kg p.o.) [%] | % Alveolar repair ([1]; dose 100 μg/kg p.o.) [%] |
| --- | --- | --- | --- | --- | --- | --- | --- |
| CCCCCC(COc1ccc(C(=O)O)cc1)c1ccc2c(c1)OCCC2(C)C (racemic) [Example 5.1, 4-[2-(4,4-dimethyl-chroman-7-yl)-heptyloxy]-benzoic acid] | 91.5 to 93.3 | 3920 | 3770 | 3160 |  |  |  |
| CCCCCC(COc1ccc(C(=O)O)cc1)c1ccc2c(c1)SCCC2(C)C (racemic) [Example 5.2, 4-[2-(4,4-dimethyl-thiochroman-7-yl)-heptyloxy]-benzoic acid] | 123 to 123.5 | 2070 | 3230 | 3010 |  |  |  |
| CCCCCC(/C=C/c1ccc(C(=O)O)cc1)c1ccc2c(c1)OCCC2(C)C (racemic) [Example 5.3, 4-[3-(4,4-dimethyl-chroman-7-yl)-oct-1-enyl]-benzoic acid] |  | 6920 | 3870 | 2920 |  |  |  |
| CCCCCC(/C=C/c1ccc(C(=O)O)cc1)c1ccc2c(c1)SCCC2(C)C (racemic) [Example 5.4, 4-[3-(4,4-dimethyl-thiochroman-7-yl)-oct-1-enyl]-benzoic acid] |  | 1580 | 2330 | 1490 |  |  |  |
| CCCCCC(/C=C/c1ccc(C(=O)O)cc1)c1ccc2c(c1)N(C)CCC2(C)C (racemic) [Example 5.5, 4-[3-(1,4,4-trimethyl-1,2,3,4-tetrahydro-quinolin-7-yl)-oct-1-enyl]-benzoic acid] |  | 1460 | 1420 | 1940 | 65 | 54 | 60.9 |
| CCCCCC(/C=C/c1ccc(C(=O)O)cc1)c1ccc2c(c1)N(CC)CCC2(C)C (racemic) [Example 5.6, 4-[3-(1-ethyl4,4-dimethyl-1,2,3,4-tetrahydro-quinolin-7-yl)-oct-1-enyl]-benzoic acid] |  | 1280 | 1000 | 1470 |  |  |  |
| CCC(/C=C/c1ccc(C(=O)O)cc1)c1ccc2c(c1)N(C)CCC2(C)C (racemic) [Example 5.7, 4-[3-(1,4,4-trimethyl-1,2,3,4-tetrahydro-quinolin-7-yl)-pent-1-enyl]-benzoic acid] |  | 3390 | > 10000 | 1050 |  |  |  |
| CCCCCC(/C=C/c1ccc(C(=O)O)cc1)c1ccc2c(c1)NCCC2(C)C (racemic) [Example 5.10, 4-[3-(4,4-dimethyl-1,2,3,4-tetrahydro-quinolin-7-yl)-oct-1-enyl]-benzoic acid] |  | 5140 | 6390 | 8270 |  |  |  |
| CCCCCC(/C=C/c1ccc(C(=O)O)cc1F)c1ccc2c(c1)N(C)CCC2(C)C (racemic) [Example 5.11, 3-fluoro-4-[3-(1,4,4-trimethyl-1,2,3,4-tetrahydro-quinolin-7-yl)-oct-1-enyl]-benzoic acid] |  | 6290 | 4060 | 3260 |  |  |  |
| CCCCCC(COc1ccc(C(=O)O)cc1)c1ccc2c(c1)N(C)CCC2(C)C (racemic) [Example 5.12, 4-[2-(1,4,4-trimethyl-1,2,3,4-tetrahydro-quinolin-7-yl)-heptyloxy]-benzoic acid] |  | 3170 | 5440 | 4150 |  |  |  |
| CCCCCC(COc1ccc(C(=O)O)cc1)c1ccc2c(c1)N(CC)CCC2(C)C (racemic) [Example 5.13, 4-[2-(1-ethyl4,4-dimethyl-1,2,3,4-tetrahydro-quinolin-7-yl)-heptyloxy]-benzoic acid] |  | 2520 | 3600 | 3130 |  |  |  |

Source: patent publication US7354931B2, “Heterocyclic retinoid compounds” (Roche Palo Alto LLC, priority 2001, dated 2008)
